Measured values: patent publication US8999962B2, “Method for increasing bone density and/or reducing any osteochondral defects in an animal and a composition including vitamin K” (priority 2008, dated 2015)

Legend:
[1] = of the apparent concentration in the leaf, cited from earlier work
[2] = Degradation of K1 by sunlight; assay type: physicochemical; settings: after 4 hours exposure to bright sunlight
Experimental: Degradation of K1 begins rapidly as soon as photosynthesis ceases and the rate of degradation is directly related to the intensity of UVB. Pure K1 in solution is denatured in 20 minutes in direct sunlight. […] Aside from the degradation of K1, a further problem herbivores have is that the concentration of other fat soluble nutrients such as lutein in green vegetation may be up to 100 times higher than the concentration of vitamin K1. Lutein competes with the absorption and metabolism of vitamin K1 (see Mitchell G. V, Cook K. K., Jenkins M. Y, Grundel E International Journal of Vitamin and Nutrition Research 2001, 71: 30) as well as high levels of Vitamin E (see Tovar A, Ameho C. K. Blumberg J. B., Peterson J. W, Smith D, Booth S. Nutrition And Metabolism 2006, 3:29) and therefore with the combination of UV, the plant matrix and competition with other fat soluble vitamins, the actual amount of vitamin K1 available is much less than quoted or expected. It follows that the vitamin K requirement for animals and humans has been grossly underestimated resulting in vitamin K deficiency.
It is known that Vitamin K1 (K1) is rapidly degraded by sunlight (UV). For vitamin K1 to be a stable component of a vitamin product, it is necessary to protect it using physical and/or chemical means. It was shown that a loss of approximately 20% of K1 occurred after 4 hours exposure to bright sunlight.

[3] = pure K1 in solution, direct sunlight; cited from earlier work

loss of K1 [2]: approximately 20%
SMILES: CC1=C(C/C=C(\C)CCC[C@H](C)CCC[C@H](C)CCCC(C)C)C(=O)c2ccccc2C1=O [Example K1, Phylloquinone]
natural bioavailability when consumed with fat ([1]; consumed with fat): 15-16% | natural bioavailability [1]: 8-10% | time in which pure K1 is denatured [3]: 20 min
